From US20200245620A1 (priority 2018, published 2020)
In brackets after ≈: the same amount, converted by molar mass. Several values for one entry are separate records, joined by “and”; a condition that tells them apart may be missing. Equal values may be shown once. Read-outs that look alike come from different tables or passages of the source.

How the values were obtained:
wheat scab fungi = assay type: in vivo
wheat scab = assay type: in vivo
Fusarium graminearum = assay: microbe, parasite or virus in culture; assay type: cell-based; conditions: for EC50: F.g sensitive strains
Fusarium asiaticum = assay: microbe, parasite or virus in culture; assay type: cell-based
rust of wheat = conditions: in vivo
sheath blight of wheat = assay: Field efficacy on wheat diseases; assay type: in vivo; conditions: 40 g a.i./Mu
Experimental: (§1) The field prevention and control efficacy of the fungicidal composition preparations of embodiments 1-8 on wheat diseases was experimented. The experimental field was arranged in Jiangsu Yancheng Xinyang Farm. The wheat variety was Huaimai 33. At the initial stage of wheat blooming, a Nongjiale 16L knapsack electric sprayer was adopted to carry out application for the first time, application was carried out for the second time after five days, water consumption was 50 kg/Mu, the area of each plot was 50 square meters, each treatment was repeated for three times, and the fungicidal composition was not applied on the blank control. Meanwhile, 80 g of carbendazim wettable powder which was 50 percent was used as a control agent for treatment per mu. According to a corresponding method specified by the industrial standard of Guidelines for the Field Efficacy Trials of Fungicides issued by the Ministry of Agriculture, the occurrences of powdery mildew, rust, sheath blight and leaf blight of wheat were investigated at the stage of milky ripeness, disease indexes and prevention and control effects were calculated, and the result is shown in table 7.

leaf blight of wheat = assay: Field efficacy on wheat diseases; assay type: in vivo; conditions: 40 g a.i./Mu
Experimental: as §1

powdery mildew of wheat = assay: Field efficacy on wheat diseases; assay type: in vivo; conditions: 40 g a.i./Mu
Experimental: as §1

[1] = test system: barley scab (fusarium head blight); assay type: in vivo
[2] = test system: Carbendazim-resistant fusarium asiaticum; assay: microbe, parasite or virus in culture; assay type: cell-based; conditions: for inhibition at 1 µg/mL / inhibition at 10 µg/mL / inhibition at 100 µg/mL / inhibition at 1000 µg/mL / inhibition at 10000 µg/mL: Fusarium asiaticum, read-out: DON Biosynthesis Inhibition Rate
barley leaf blight = assay: Field efficacy on barley diseases; assay type: in vivo
Experimental: (§2) The field prevention and control efficacy of the fungicidal composition preparations of embodiments 1-8 on barley diseases was experimented, wherein different doses of single jinggangmycin agent and single ipconazole agent were designed for treatment. In 2014, application was carried out for the first time at the initial stage of barley blooming, application was carried out for the second time after five days, water consumption was 50 kg/Mu, the area of each plot was 50 square meters, each treatment was repeated for three times, and the fungicidal composition was not applied on the blank control. A conventional agent, polyketone wettable powder, was adopted as a control agent. According to a corresponding method specified by the industrial standard of Guidelines for the Field Efficacy Trials of Fungicides issued by the Ministry of Agriculture, the occurrences of barley scab, powdery mildew, rust and leaf blight were investigated at the stage of milky ripeness, disease indexes and prevention and control effects were calculated, and the result is shown in table 8. One hundred and fifty barley ears were sampled randomly every five treated points at the stage of wax ripeness, taken in for threshing and assayed according to the method of application embodiment 1, and toxin contents of the kernels were calculated.

barley powdery mildew = assay: Field efficacy on barley diseases; assay type: in vivo
Experimental: as §2

[3] = test system: barley scab (fusarium head blight); assay type: in vivo; remark: listed apart in the source
barley rust = conditions: in vivo
Tri5 gene = assay type: cell-based, fusarium asiaticum
[4] = Fusarium asiaticum, read-out: Growth Inhibition Rate

COC(=O)Nc1nc2ccccc2[nH]1 [Carbendazim, carbendazim]
DON Contamination Reduction Rate (wheat scab fungi; 40 g a.i./Mu): 58.42% | Grain Toxin Content (wheat scab fungi; 40 g a.i./Mu): 4.42 μg of toxin/g of kernels | Disease Index Prevention Effect, Actual Prevention Effect (wheat scab; 40 g a.i./Mu): 67.5% | EC50 (Fusarium graminearum; Fusarium graminearum): 0.45 µg/mL (≈ 2.35 µM) | EC50 (Fusarium asiaticum; Fusarium asiaticum): 0.45 µg/mL (≈ 2.35 µM) | Disease Index Prevention Effect, Rust (rust of wheat): 61.24% | Disease Index Prevention Effect, Sheath Blight (sheath blight of wheat): 44.65% | Disease Index Prevention Effect, Leaf Blight (leaf blight of wheat): 48.53% | Disease Index Prevention Effect, Powdery Mildew (powdery mildew of wheat): 52.62%

CC(C)C1CCC(Cc2ccc(Cl)cc2)C1(O)Cn1cncn1 (stereo not shown) [Ipconazole]
DON Contamination Reduction Rate (wheat scab fungi; ipconazole 4 g a.i./Mu): 49.11% | Grain Toxin Content (wheat scab fungi; ipconazole 4 g a.i./Mu): 5.41 μg of toxin/g of kernels | DON Contamination Reduction Rate (wheat scab fungi; ipconazole 6 g a.i./Mu): 59.08% | Grain Toxin Content (wheat scab fungi; ipconazole 6 g a.i./Mu): 4.35 μg of toxin/g of kernels | DON Contamination Reduction Rate (wheat scab fungi; ipconazole 8 g a.i./Mu): 61.24% | Grain Toxin Content (wheat scab fungi; ipconazole 8 g a.i./Mu): 4.12 μg of toxin/g of kernels | DON Contamination Reduction Rate (wheat scab fungi; ipconazole 10 g a.i./Mu): 63.78% | Grain Toxin Content (wheat scab fungi; ipconazole 10 g a.i./Mu): 3.85 μg of toxin/g of kernels | DON Contamination Reduction Rate (wheat scab fungi; ipconazole 16 g a.i./Mu): 71.50% | Grain Toxin Content (wheat scab fungi; ipconazole 16 g a.i./Mu): 3.03 μg of toxin/g of kernels | Disease Index Prevention Effect, Actual Prevention Effect (wheat scab; ipconazole 4 g a.i./Mu): 42.65% | Disease Index Prevention Effect, Actual Prevention Effect (wheat scab; ipconazole 6 g a.i./Mu): 53.45% | Disease Index Prevention Effect, Actual Prevention Effect (wheat scab; ipconazole 8 g a.i./Mu): 67.58% | Disease Index Prevention Effect, Actual Prevention Effect (wheat scab; ipconazole 10 g a.i./Mu): 72.41% | Disease Index Prevention Effect, Actual Prevention Effect (wheat scab; ipconazole 16 g a.i./Mu): 80.33% | EC50 (Fusarium graminearum; Fusarium graminearum): 0.89 µg/mL (≈ 2.67 µM) | inhibition at 0.0125 µg/mL (Fusarium graminearum; Fusarium graminearum, read-out: Growth Inhibition Rate, sensitive strains, 0.0125 μg/mL): 28.9% | inhibition at 0.025 µg/mL (Fusarium graminearum; Fusarium graminearum, read-out: Growth Inhibition Rate, sensitive strains, 0.025 μg/mL): 38.3% | inhibition at 0.05 µg/mL (Fusarium graminearum; Fusarium graminearum, read-out: Growth Inhibition Rate, sensitive strains, 0.05 μg/mL): 40.8% | inhibition at 0.1 µg/mL (Fusarium graminearum; Fusarium graminearum, read-out: Growth Inhibition Rate, sensitive strains, 0.1 μg/mL): > 50% | inhibition at 0.2 µg/mL (Fusarium graminearum; Fusarium graminearum, read-out: Growth Inhibition Rate, sensitive strains, 0.2 μg/mL): 77.1% | Average Fungal Colony Diameter (Fusarium graminearum; sensitive strains, 0.0125 μg/mL): 53.5 mm | Average Fungal Colony Diameter (Fusarium graminearum; sensitive strains, 0.025 μg/mL): 46.4 mm | Average Fungal Colony Diameter (Fusarium graminearum; sensitive strains, 0.05 μg/mL): 44.5 mm | Average Fungal Colony Diameter (Fusarium graminearum; sensitive strains, 0.1 μg/mL): 31.8 mm | Average Fungal Colony Diameter (Fusarium graminearum; sensitive strains, 0.2 μg/mL): 17.2 mm | Grain Toxin Content ([1]; ipconazole 5 g a.i./Mu): 3.54 mg of DON/Kg of kernel | Toxin Reduction Percentage ([1]; ipconazole 5 g a.i./Mu): 58.50% | Grain Toxin Content ([1]; ipconazole 10 g a.i./Mu): 2.57 mg of DON/Kg of kernel | Toxin Reduction Percentage ([1]; ipconazole 10 g a.i./Mu): 69.87% | DON Biosynthesis Inhibition Rate [2]: 0.36% and 0.31% | Toxin Production Capability [2]: 87.68 μgDON/g by dry weight of hyphae and 52.16 μgDON/g by dry weight of hyphae | inhibitory effects on the toxin biosynthesis capability of the fusaria [2]: does not have significant inhibitory effects | inhibition at 0.0125 µg/mL (Fusarium asiaticum; [4]): 29.5% | inhibition at 0.025 µg/mL (Fusarium asiaticum; [4]): 38.6% | inhibition at 0.05 µg/mL (Fusarium asiaticum; [4]): 41.7% | inhibition at 0.1 µg/mL (Fusarium asiaticum; [4]): > 50% | inhibition at 0.2 µg/mL (Fusarium asiaticum; [4]): 76.6% | Disease Index Prevention Effect, Leaf Blight (barley leaf blight; ipconazole 5 g a.i./Mu): 64.29% | Disease Index Prevention Effect, Leaf Blight (barley leaf blight; ipconazole 10 g a.i./Mu): 75.34% | Disease Index Prevention Effect, Powdery Mildew (barley powdery mildew; ipconazole 5 g a.i./Mu): 76.24% | Disease Index Prevention Effect, Powdery Mildew (barley powdery mildew; ipconazole 10 g a.i./Mu): 85.64% | Disease Index Prevention Effect, Fusarium head blight ([3]; ipconazole 5 g a.i./Mu): 43.84% | Disease Index Prevention Effect, Fusarium head blight ([3]; ipconazole 10 g a.i./Mu): 62.41% | Disease Index Prevention Effect, Rust (barley rust): 74.25% and 82.65%

OCC1=C[C@H](N[C@H]2C[C@H](CO)[C@@H](O[C@@H]3O[C@H](CO)[C@@H](O)[C@H](O)[C@H]3O)[C@H](O)[C@H]2O)[C@H](O)[C@@H](O)[C@@H]1O [Jinggangmycin]
Rate of Inhibition on Relative Expression Level of Tri5 Gene (Tri5 gene): 66% and 84% and 87% and 90% and 59% | DON Contamination Reduction Rate (wheat scab fungi; 2 g a.i./Mu): 16.18% | Grain Toxin Content (wheat scab fungi; 2 g a.i./Mu): 8.91 μg of toxin/g of kernels | DON Contamination Reduction Rate (wheat scab fungi; jinggangmycin 4 g a.i./Mu): 19.00% | Grain Toxin Content (wheat scab fungi; jinggangmycin 4 g a.i./Mu): 8.61 μg of toxin/g of kernels | DON Contamination Reduction Rate (wheat scab fungi; jinggangmycin 8 g a.i./Mu): 37.72% | Grain Toxin Content (wheat scab fungi; jinggangmycin 8 g a.i./Mu): 6.62 μg of toxin/g of kernels | DON Contamination Reduction Rate (wheat scab fungi; jinggangmycin 10 g a.i./Mu): 41.58% | Grain Toxin Content (wheat scab fungi; jinggangmycin 10 g a.i./Mu): 6.21 μg of toxin/g of kernels | DON Contamination Reduction Rate (wheat scab fungi; jinggangmycin 12 g a.i./Mu): 50.99% | Grain Toxin Content (wheat scab fungi; jinggangmycin 12 g a.i./Mu): 5.21 μg of toxin/g of kernels | DON Contamination Reduction Rate (wheat scab fungi; jinggangmycin 16 g a.i./Mu): 54.37% | Grain Toxin Content (wheat scab fungi; jinggangmycin 16 g a.i./Mu): 4.85 μg of toxin/g of kernels | Disease Index Prevention Effect, Actual Prevention Effect (wheat scab; 2 g a.i./Mu): 0% | Disease Index Prevention Effect, Actual Prevention Effect (wheat scab; jinggangmycin 4 g a.i./Mu): 8.65% | Disease Index Prevention Effect, Actual Prevention Effect (wheat scab; jinggangmycin 8 g a.i./Mu): 10.24% | Disease Index Prevention Effect, Actual Prevention Effect (wheat scab; jinggangmycin 10 g a.i./Mu): 14.31% | Disease Index Prevention Effect, Actual Prevention Effect (wheat scab; jinggangmycin 12 g a.i./Mu): 16.54% | Disease Index Prevention Effect, Actual Prevention Effect (wheat scab; jinggangmycin 16 g a.i./Mu): 18.65% | inhibition at 50 µg/mL (Fusarium graminearum; Fusarium graminearum, read-out: Growth Inhibition Rate, sensitive strains, 50 μg/mL): 6.5 to 7.8% | synergistic effect for ipconazole in inhibiting hyphal growth in vitro (Fusarium graminearum; jinggangmycin 0.1-50 μg/mL with ipconazole 0.05 or 0.1 μg/mL): does not have a synergistic effect | Average Fungal Colony Diameter (Fusarium graminearum; sensitive strains, 0.1 μg/mL): 76.3 mm | Average Fungal Colony Diameter (Fusarium graminearum; sensitive strains, 1 μg/mL): 76.2 mm | Average Fungal Colony Diameter (Fusarium graminearum; sensitive strains, 10 μg/mL): 75.4 mm | Average Fungal Colony Diameter (Fusarium graminearum; sensitive strains, 50 μg/mL): 70.3 mm | Growth Inhibition Rate (Fusarium graminearum; sensitive strains, 50 μg/mL): 6.52% | Grain Toxin Content ([1]; jinggangmycin 5 g a.i./Mu): 5.28 mg of DON/Kg of kernel | Toxin Reduction Percentage ([1]; jinggangmycin 5 g a.i./Mu): 38.10% | Grain Toxin Content ([1]; jinggangmycin 10 g a.i./Mu): 4.62 mg of DON/Kg of kernel | Toxin Reduction Percentage ([1]; jinggangmycin 10 g a.i./Mu): 45.84% | inhibition at 1 µg/mL ([2]; 168 h): 28.6% | inhibition at 10 µg/mL ([2]; 168 h): 35.5% | inhibition at 100 µg/mL ([2]; 168 h): 45.2% | inhibition at 1000 µg/mL ([2]; 168 h): 65.5% | inhibition at 10000 µg/mL ([2]; 168 h): 75.9% | inhibition at 1 µg/mL ([2]; 336 h): 1.7% | inhibition at 10 µg/mL ([2]; 336 h): 7.87% | inhibition at 100 µg/mL ([2]; 336 h): 29.9% | inhibition at 1000 µg/mL ([2]; 336 h): 57% | inhibition at 10000 µg/mL ([2]; 336 h): 75.4% | Average Fungal Colony Diameter (Fusarium asiaticum): 75.6 mm and 69.4 mm and 76.3 mm | inhibitory activity on the growth in vitro (Fusarium asiaticum): almost does not have inhibitory activity | synergistic effect for ipconazole in inhibiting hyphal growth in vitro (Fusarium asiaticum): does not have a synergistic effect | inhibition at 50 µg/mL (Fusarium asiaticum; [4]): 6.5 to 7.8% | Disease Index Prevention Effect, Leaf Blight (barley leaf blight; jinggangmycin 5 g a.i./Mu): 0% | Disease Index Prevention Effect, Leaf Blight (barley leaf blight; jinggangmycin 10 g a.i./Mu): 0% | Disease Index Prevention Effect, Powdery Mildew (barley powdery mildew; jinggangmycin 5 g a.i./Mu): 0% | Disease Index Prevention Effect, Powdery Mildew (barley powdery mildew; jinggangmycin 10 g a.i./Mu): 0% | Disease Index Prevention Effect, Fusarium head blight ([3]; jinggangmycin 5 g a.i./Mu): 4.54% | Disease Index Prevention Effect, Fusarium head blight ([3]; jinggangmycin 10 g a.i./Mu): 12.58% | Disease Index Prevention Effect, Rust (barley rust): 0%

CCOC(=O)C(C#N)=C(N)c1ccccc1 [Phenamacril, phenamacril]
EC50 (Fusarium graminearum): 0.165 µg/mL (≈ 0.763 µM)
